How the values were obtained:
SHP77 cells = test: AKT/AKT2 siRNA then COTI-2, cell viability by MTT assay, SHP77; assay type: cell-based, human; details: SHP 77
Method: Cell cultures were maintained under regular tissue culture conditions and passaged 1-2 times a week as recommended by ATCC. For siRNA experiments the manufacturer's conditions for growth and transfection were followed. All siRNA reagents for AKT and AKT2 transfections were obtained from Cell Signaling.
Cells were treated for 48 h with 0-100 ng of AKT or AKT2 siRNA before incubation with COTI-2 at various concentrations (0-500 nM). Following incubation for 48 h, cell viability was determined by MTT assay.

DMS114 and SHP77 cells = test: Western blotting of AKT pSer473 and AKT phospho-protein targets; assay type: cell-based, human; details: for mTOR phospho-Ser 2448: 300 nM, time course
Method: Routine laboratory methods were employed for the production of cellular lysates, protein quantification, SDS-PAGE and western blotting. All antibodies were obtained from Cell Signaling and Abcam. To determine total AKT & AKT2 in DMS114 cells, 5×10^4 cells were incubated for 48 h with 10-100 ng of AKT2 siRNA or a scrambled control oligonucleotide. Cells were lysed and 50 μg of protein was separated by SDS-PAGE and blotted with antibody to total AKT or AKT2.
The phospho-AKT status at Ser473 was determined in the presence of COTI-2 utilizing western blotting. […] The inhibition of AKT phosphorylation at Ser473 correlates with the reduction in the phosphorylation of GSK-3α/β (pSer21/9), which is a downstream target of activated phospho-AKT. […] The complete time course of the AKT phospho-Ser473 status in DMS114 and SHP77 cells during incubation with COTI-2 is documented in FIG. 39.
A complex relationship exists between Raptor- and Rictor-containing mTor complexes mTORC1 and mTORC2, respectively, and AKT. mTORC2 activates AKT by Ser473 phosphorylation; in turn, activated AKT phosphorylates TSC2, which prevents its interaction with Rheb and thus the hydrolysis of GTP associated with Rheb. As a result, Rheb-GTP activates mTOR by phosphorylation on Ser2448. […] The results shown in FIGS. 40-45 agree with this hypothesis. […] Phosphorylation of the PTEN C terminal was reported to stabilize PTEN and protect against ubiquitin-mediated degradation (Nat Rev Cancer, 6: 184-192). One implication of this observation is that COTI-2 may activate PTEN and thus, by reducing the amount of PIP3, contribute to the inhibition of AKT activity.

in vivo = details: both, rat, in vivo
Excerpt: Pharmacokinetic studies in animal models provide valuable information that enables prediction of metabolism in humans. There are a large variety of animal models that allow for the pharmacokinetic evaluation of compounds by providing information on serum, plasma, and tissue levels. […] As a result, it is important to keep this phenomenon in mind during extrapolations from animal to human metabolism. An initial pharmacokinetic assessment of COTI-2, administered both intravenously and orally, in its parent formulation and as both an oxalate and tartrate salt were evaluated in rats.
A single oral or IV dose of the COTI-2 free-base or the aforementioned salt forms was administered to groups of male and female rats and blood samples collected and processed at several time-points post-treatment.

CYP2B6 = biological target: T1, CYP2B6 (Homo sapiens, UniProt P20813); test: in vitro; details: both
T1 sequence (P20813 1-491): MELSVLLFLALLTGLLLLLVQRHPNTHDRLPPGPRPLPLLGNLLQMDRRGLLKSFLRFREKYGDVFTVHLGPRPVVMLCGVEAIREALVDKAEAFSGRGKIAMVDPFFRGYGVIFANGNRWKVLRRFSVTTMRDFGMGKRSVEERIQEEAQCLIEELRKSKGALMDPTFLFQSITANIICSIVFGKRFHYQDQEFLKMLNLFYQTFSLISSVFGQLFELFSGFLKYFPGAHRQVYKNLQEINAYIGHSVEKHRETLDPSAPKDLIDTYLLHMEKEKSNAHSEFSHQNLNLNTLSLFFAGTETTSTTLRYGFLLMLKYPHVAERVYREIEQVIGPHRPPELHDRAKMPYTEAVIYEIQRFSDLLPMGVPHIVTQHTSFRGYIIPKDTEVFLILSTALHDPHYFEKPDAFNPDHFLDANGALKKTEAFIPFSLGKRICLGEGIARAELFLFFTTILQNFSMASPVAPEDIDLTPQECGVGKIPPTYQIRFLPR

cleaved caspases 3 and 9 = test: Cleaved caspase 3 and 9 by western blot after COTI-219; assay type: cell-based, human; details: 12 h incubation, dose-dependent increase
Method: Cell viability assays were performed 24 to 48 h following incubation with COTI-219 by the trypan blue exclusion method using a Beckman-Coulter Vi-CELL XR 2.03 automated cell counter. Routine laboratory methods were employed for the production of cellular lysates, protein quantitation, SDS-PAGE and western blotting. All antibodies were obtained from Cell Signaling (Erk1/2 #4695, Ras #3965, CDK2 #2546, PKCalpha #2056, EGFR #2232, and ERBB2 #2165).
In lung cancer, oncogenic Ras exerts anti-apoptotic effects, in part by up-regulating the multi-functional PKB/AKT kinase. Activated PKB/AKT phosphorylates and inhibits caspase 9 activation. In order to determine whether caspase 9 activation mediates COTI-219 apoptosis, cells were incubated for 12 h with vehicle or increasing concentrations of COTI-219 and the expression levels of cleaved caspases 3 and 9 were determined. There was a dose-dependent increase in the levels of both cleaved caspases, peaking at 0.5 μM of COTI-219. Beyond this concentration, activated caspase 9 was not detectable and there was a decline in cleaved caspase 3.

| SMILES | cell death with total AKT or AKT2 siRNA, presence vs absence of COTI-2 (SHP77 cells) | phosphorylation of GSK-3α/β (pSer21/9) (DMS114 and SHP77 cells; 250 nM) | AKT Ser473 phosphorylation (DMS114 and SHP77 cells; 250 nM, 2 h) | PTEN phospho-Ser380 (DMS114 and SHP77 cells; DMS114 cells) | mTOR phospho-Ser 2448 (DMS114 and SHP77 cells; DMS114 cells) | mTOR phospho-Ser 2448 (DMS114 and SHP77 cells; SHP77 cells) | bioavailability (in vivo) | Tmax (in vivo; po) | clearance (CL) from plasma, fold higher than the oxalate and tartrate formulations (in vivo; po) | rate of absorption (Ka), fold higher than the other formulations (in vivo; po) | inhibition at 15 min, 10 µM (CYP2B6; human liver microsomes, pH 7.4, probe bupropion (10 µM)) | inhibition at 15 min, 10 µM (CYP2B6; liver microsomes, pH 7.4, probe bupropion) | concentration at which levels of cleaved caspases 3 and 9 peak (cleaved caspases 3 and 9) |
| --- | --- | --- | --- | --- | --- | --- | --- | --- | --- | --- | --- | --- | --- |
| S=C(N/N=C1/CCCc2cccnc21)N1CCN(c2ccccn2)CC1 [COTI-2] | no significant difference in cell death | reduction | profound inhibition | strong but transient increase | initial decrease in phospho-Ser 2448 at 2 hrs followed by a more sustained decrease at 24 and 48 hrs | only the decrease at 2 hrs of incubation was observed | 17.7% | 4 h | approximately 2 fold | approximately 3 fold | 5% | < 50% |  |
| CN1CCN(C(=S)NN=C2c3ncccc3-c3cccnc32)CC1 [COTI-219] |  |  |  |  |  |  |  |  |  |  |  |  | 0.5 µM |

Source: patent publication US8138191B2, “Inhibitor compounds and cancer treatment methods” (Critical Outcome Technologies Inc., priority 2007, dated 2012)
